Experimental data: ChEMBL document CHEMBL1135538, “Synthesis of N-glyoxyl prolyl and pipecolyl amides and thioesters and evaluation of their in vitro and in vivo nerve regenerative effects” (J Med Chem, 2002)

Columns and labels:
[1] = test system: Mus musculus; assay: Percent recovery of tyrosine hydroxylase immunostaining in mice following 10 mg/kg p.o. administration after lesioning with MPTP.; assay type: functional, organism-based; design: dose 10 mg/kg; conditions: at 10 mg/kg
[2] = test system: Mus musculus; assay: Percent recovery of tyrosine hydroxylase immunostaining after oral administration at dose 10 mg/kg concurrently with MPTP; assay type: functional, organism-based; design: dose 10 mg/kg
[3] = test system: Mus musculus; assay: Percent recovery of tyrosine hydroxylase immunostaining after oral administration at dose 10 mg/kg after lesioning with MPTP (post-MPTP); assay type: functional, organism-based; design: dose 10 mg/kg
[4] = biological target: Peptidyl-prolyl cis-trans isomerase FKBP1A (Homo sapiens, UniProt P62942); assay: Inhibitory activity against FK506 binding protein 12
[5] = species: Gallus gallus; assay: In vitro promotion of fiber extension (neurite outgrowth) from cultured chick sensory neuron; assay type: functional; conditions: read-out: ED50 (the source's name)
[6] = test system: Mus musculus; assay: Percent recovery of tyrosine hydroxylase immunostaining after peroral administration at dose 10 mg/kg after lesioning with MPTP (post-MPTP); assay type: functional, organism-based; design: dose 10 mg/kg
[7] = test system: Mus musculus; assay: Percent recovery of vtyrosine hydroxylase immunostaining after oral administration at dose 10 mg/kg after lesioning with MPTP (post-MPTP); assay type: functional, organism-based; design: dose 10 mg/kg

Chain of Peptidyl-prolyl cis-trans isomerase FKBP1A (P62942 whole entry): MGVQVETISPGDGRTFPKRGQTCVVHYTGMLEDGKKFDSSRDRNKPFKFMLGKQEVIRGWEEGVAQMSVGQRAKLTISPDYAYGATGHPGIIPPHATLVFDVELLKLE

| SMILES | Recovery [1] | Recovery [2] | further results |
| --- | --- | --- | --- |
| CCC(C)(C)C(=O)C(=O)N1CCCC[C@H]1C(=O)SCCC(c1ccccc1)c1ccccc1 | 72% | 81% | – |
| CCC(C)(C)C(=O)C(=O)N1CCCC[C@H]1C(=O)NCCCCc1ccccc1 | 54.1% | – | – |
| CCC(C)(C)C(=O)C(=O)N1CCC[C@H]1C(=O)SCCC(c1ccccc1)c1ccccc1 | – | 39% | Recovery [3]: 37% |
| CCC(C)(C)C(=O)C(=O)N1CCC[C@H]1C(=O)NCCCc1ccccc1 | – | – | Ki [4]: 1100 nM; Recovery [3]: 39% |
| CCC(C)(C)C(=O)C(=O)N1CCCC[C@H]1C(=O)NCCCCc1cccnc1 | 29.4% | – | – |
| CC(C)(C)C(=O)C(=O)N1CCC[C@H]1C(=O)NCCCc1ccccc1 | 28.1% | – | – |
| CC(C)(C)C(=O)C(=O)N1CCCC[C@H]1C(=O)NCCCCc1ccccc1 | 44.9% | – | – |
| O=C(C(=O)N1CCC[C@H]1C(=O)SCCCc1ccccc1)C1CCCCC1 | – | 52% | – |
| CCC(C)(C)C(=O)C(=O)N1CCC[C@H]1C(=O)SCCCc1ccc2ccccc2c1 | – | 36% | Recovery [3]: 10% |
| CCC(C)(C)C(=O)C(=O)N1CCCC[C@H]1C(=O)NC | 31.6% | – | – |
| CCC(C)(C)C(=O)C(=O)N1CCC[C@H]1C(=O)SCCCc1ccc(OC)cc1 | – | – | EC50 [5]: 0.01 nM |
| CCC(C)(C)C(=O)C(=O)N1CCC[C@H]1C(=O)NC | 16.1% | – | – |
| CCC(C)(C)C(=O)C(=O)N1CCC[C@H]1C(=O)SCCc1ccccc1 | 31.4% | 66% | EC50 [5]: 0.77 nM |
| CCC(C)(C)C(=O)C(=O)N1CCCC[C@H]1C(=O)NCCCCc1ccc(O)cc1 | 60.4% | – | – |
| CCC(C)(C)C(=O)C(=O)N1CCC[C@H]1C(=O)NCCCCc1ccccc1 | 50.1% | – | – |
| CCC(C)(C)C(=O)C(=O)N1CCC[C@H]1C(=O)OCCCc1cccnc1 [GPI-1046] | – | 43% | Recovery [6]: 35%; EC50 [5]: 0.06 nM |

| SMILES | Recovery [1] | Recovery [2] | further results |
| --- | --- | --- | --- |
| CCC(C)(C)C(=O)C(=O)N1CCC[C@H]1C(=O)SCCCc1ccccc1 | – | 72% | EC50 [5]: < 0.01 nM |
| CCC(C)(C)C(=O)C(=O)N1CCC[C@H]1C(=O)SCCCCc1ccccc1 | – | 48% | – |
| CCC(C)(C)C(=O)C(=O)N1CCCC[C@H]1C(=O)NCCCCCc1ccccc1 | 37.4% | – | – |
| CCC(C)(C)C(=O)C(=O)N1CCC[C@H]1C(=O)N(C)CCCc1ccccc1 | 20.5% | – | – |
| CCC(C)(C)C(=O)C(=O)N1CCCC[C@H]1C(=O)NCCC(c1ccccc1)c1ccccc1 | 41.9% | – | Ki [4]: 420 nM |
| CCC(C)(C)C(=O)C(=O)N1CCCC[C@H]1C(=O)NCCCc1ccccc1 | 65.3% | – | – |
| CCC(C)(C)C(=O)C(=O)N1CCC[C@H]1C(=O)NCCc1ccccc1 | 44.1% | – | – |
| CCC(C)(C)C(=O)C(=O)N1CCC[C@H]1C(=O)NCCCc1cccnc1 | 4.7% | – | Ki [4]: 820 nM |
| CCC(C)(C)C(=O)C(=O)N1CCC[C@H]1C(=O)SCCCc1cccnc1 | – | 31% | – |
| CCC(C)(C)C(=O)C(=O)N1CCC[C@H]1C(=O)NC(CCc1ccccc1)CCc1ccccc1 | 6.9% | – | – |
| CCC(C)(C)C(=O)C(=O)N1CCC[C@H]1C(=O)SCCCc1ccc(C(F)(F)F)cc1 | – | 71% | Recovery [3]: 34% |
| CCC(C)(C)C(=O)C(=O)N1CCCC[C@H]1C(=O)SCCCc1ccccc1 | – | – | Recovery [7]: 30% |
| CCC(C)(C)C(=O)C(=O)N1CCCC[C@H]1C(=O)SCCc1ccccc1 | – | 73% | – |
| O=C(C(=O)N1CCCC[C@H]1C(=O)NCCCCc1ccccc1)c1ccccc1 | 18.7% | – | – |
| CCC(C)(C)C(=O)C(=O)N1CCC[C@H]1C(=O)NCCCc1ccc(O)cc1 | 1.8% | – | – |
| O=C(C(=O)N1CCC[C@H]1C(=O)SCCc1ccccc1)C1CCCC1 | – | 41% | – |
